The values below come from patent US12589103B2, “Antimicrobial and antiviral effects of C2-C7 alkyl boronic acids” (CORNELL UNIVERSITY, priority 2019, dated 2026).

Data set [1] deals with AIEC E. coli (541-1, LF82) virulence genes. In words: Virulence gene expression of AIEC (qRT-PCR). The data set is classed as cell-based. The settings on record: 30 mM. How it is done: Total RNA was extracted using the Qiagen RNAProtect-RNeasy Kit per manufacturer's protocol. Total RNA was treated with TURBO DNA-Free Kit (Ambion), followed by a two-step qRT-PCR analysis, using Qiagen's QuantiTect Reverse Transcription Kit and QuantiNova SYBR Green PCR Kit. Each qPCR reaction contained 1 μl of cDNA, 0.7 μl of each forward and reverse primers (10 μM), 5 μL of 2× SYBR Green Master Mix, 1 μl of QN ROX Reference Dye and […] of nuclease-free water to make the total volume of 10 μl. The reaction was run with ABI7000 (Applied Biosystems). […] The relative change of a targeted gene expression was calculated by using the equation RQ=2^−ΔΔCT.

The test system of a further data set is Salmonella. As to the kind of experiment: Adhesion and invasion of colonic epithelial cells by Salmonella. The data set is classed as cell-based.
Data set [2] in a line: DSS induced colitis in mice. The data set is classed as in vivo, C57BL mice. The settings on record: 40 mM in drinking water after DSS (3%). How it is done:
On the basis of favorable in vivo toxicity tests, the ability of BA and EBA to reduce the severity of inflammation in murine models of microbially driven IBD was tested. The effect of BA and EBA (40 mM) on intestinal inflammation was evaluated in mice with dextran sodium sulfate (“DSS”) induced colitis. The DSS model has a complex etiopathogenesis that involves host-immune and inflammatory responses and the enteric microbiome BA To test their protecting ability to the gastrointestinal tract, boric and ethylboronic acid were given to C57BL mice at 40 mM concentration respectively in drinking water after DSS (3%) treatment. Body weight and fecal samples were taken before and after 6-day treatment. At the 6th day, all mice were euthanized for gross necropsy and histopathology. Intestinal sections were collected and embedded for pathological and FISH analysis. Fecal samples were used for 16s and lipocalin analysis.

Data set [3] has as its system probiotic Lactobacillus spp. In words: Growth of probiotic Lactobacillus strains. As to conditions: three Lactobacillus strains.
Data set [4] relates to AIEC in murine macrophage J774A.1 cells. As to the kind of experiment: Uptake and survival of AIEC in J774A.1 macrophages. The data set is classed as cell-based, E. coli.
Another data set has as its system AIEC 541-1 and LF82. In words: Adhesion and invasion of Caco-2 cells by AIEC. As to conditions: 30 mM, m.o.i 10, 3 h. The data set is classed as cell-based, E. coli.
Data set [5] concerns AIEC E. coli isolated from people (MDR and non-MDR strains). In words: Growth of MDR and non-MDR E. coli associated with Crohn's disease. The data set is classed as cell-based. The settings on record: 40 mM, LB broth, 48 hrs. How it is done: The ability of C1-C3 alkyl boronic acids and BA to impact the growth of MDR E. coli isolated from people and dogs was evaluated using a temperature controlled 96-well multiplate incubator at 37° C. over 48 hrs. Growth in media (LB broth) with and without ABA C2-6 (40 mM) was monitored by readings at OD600 with the AUC of the growth curve calculated.

Data set [6] concerns Gram Positive aerobes and probiotic species (Lactobacillus, Bifidobacteria). In words: Bacterial growth panel, impact on non-target species (selectivity). The data set is classed as cell-based.

“Also recorded” adds a separate entry of the source.

Experimental for AIEC 541-1 and LF82: E. coli was cultured overnight in LB at 37° C. with shaking. Bacterial pellets were re-suspended in PBS before dilution in cell culture media±30 mM boronic acid or alkyl boronic acid to an m.o.i (multiplicity of infection) of 10. Caco-2 cells were infected with the diluted E. coli for 3 h at 37° C. before washing with PBS, then lysed with 1% Triton X-100. Serial dilutions of the lysates were made in PBS and plated on LB agar. The total number of colonies recovered was used to calculate the number of adherent bacteria. For invasion assays, cells were treated with gentamicin (100 μg mL−1) for one hour after initial infection and 3× wash with PBS to kill extracellular bacteria. Cells were then washed 3× after gentamicin treatment, lysed and plated as described above.

In the case of `CCB(O)O` [EBA, ethyl boronic acid], the “pduC expression in 541-1” value in data set [1] is “Upregulation”. The “virulence gene expression of AIEC” value in data set [1] (mid log phase, compared with BA) is on record as “inhibited virulence gene expression”. For the same compound, the “suppression of adhesion and invasion of Salmonella” value in the data set on Salmonella is on record as 40-50%. Besides, in data set [2], the “colon length in DSS colitis versus control mice” value is recorded as “not significantly different”, the “fecal lipocalin levels in DSS colitis versus control mice” value is “not significantly different” and the “intestinal bleeding in DSS colitis” value is recorded as “absent”. Besides, the “growth of probiotic Lactobacillus spp” value in data set [3] is given as “do not suppress growth”. Also, the “survival of AIEC in J774A.1 macrophages” value in data set [4] (30 mM during infection, 24 h post infection) was “inhibited the survival”. The “uptake of AIEC by J774A.1 macrophages” value in data set [4] (30 mM, 1 h) is reported as “inhibited the uptake”. In addition, the “adhesion and invasion of Caco-2 by AIEC” value in the data set with AIEC 541-1 and LF82 is “suppress adhesion and invasion of Caco-2 by AIEC 541-1 and LF82”. The “growth inhibition of Crohn's disease associated AIEC, MDR and non-MDR” value in data set [5] was “more effective than BA over a wider range of AIEC, including MDR and non-MDR strains”. Further, in data set [6] (compared with BA), the “selectivity against Probiotic spp” value is listed as “more selective than BA” and the “selectivity versus Gram Positive aerobes” value is listed as “more selective than BA”. In addition, in data set [6] (same concentrations as growth panel), the “selectivity: impact on Gram Positive aerobes and probiotic species” value was “less impact on probiotic Lactobacillus, Bacillus, and Gram Positive aerobes; also recorded: more selective than DoDBA; also recorded: more selective than C3-C7 alkyl boronic acids”.
